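Briefly, cells in 96-well plates were exposed to five compound concentrations for 48 h, and endpoints were estimated by linear interpolation. GI50 is the concentration that inhibits growth by half.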 Calls of active or inactive are those of the source. No stated cut-off is given here; in the data, active = GI50 up to about 1.1 µM and inactive = higher.
Assays:
Assay in all cases: DTP human tumour cell line panel, 48 h
[1] = system: NCI-H226
[2] = system: SW-620
[3] = system: CAKI-1
[4] = system: BT-549
[5] = system: U-251
[6] = system: NCI/ADR-RES
[7] = system: NCI-H460
[8] = system: SK-OV-3
[9] = system: NCI-H23
[10] = system: COLO 205
[11] = system: OVCAR-4
[12] = system: Malme-3M
[13] = system: HOP-92
[14] = system: UO-31
[15] = system: MDA-MB-435
[16] = system: RPMI-8226
[17] = system: LOX IMVI
[18] = system: HCC 2998

Structure (SMILES)	GI50 [1]	GI50 [2]	GI50 [3]	GI50 [4]	GI50 [5]	GI50 [6]	GI50 [7]	GI50 [8]	GI50 [9]	GI50 [10]	GI50 [11]	GI50 [12]	GI50 [13]	GI50 [14]	GI50 [15]	GI50 [16]	GI50 [17]	GI50 [18]
COc1cc(C(c2cc(OC)c(OC)c(OC)c2)N2C(=O)CCC2C(=O)O)cc(OC)c1OC (centres undefined)	> 100 µM (inactive)	> 100 µM (inactive)	> 100 µM (inactive)	> 100 µM (inactive)	> 100 µM (inactive)	> 100 µM (inactive)	> 100 µM (inactive)	> 100 µM (inactive)	> 100 µM (inactive)	> 100 µM (inactive)	> 100 µM (inactive)	> 100 µM (inactive)	> 100 µM (inactive)	> 100 µM (inactive)	> 100 µM (inactive)	> 100 µM (inactive)	–	–
COc1ccc2c(C)cc(N/N=C/c3ccc(OC)c4ccccc34)nc2c1	12.9 µM (inactive)	7.06 µM (inactive)	13.4 µM (inactive)	20.1 µM (inactive)	3.66 µM (inactive)	14.4 µM (inactive)	16.6 µM (inactive)	17.3 µM (inactive)	16.5 µM (inactive)	16.7 µM (inactive)	19 µM (inactive)	17.5 µM (inactive)	11.2 µM (inactive)	12.6 µM (inactive)	11.2 µM (inactive)	2.78 µM (inactive)	3.71 µM (inactive)	–
CC(=O)Oc1c(C)c2c(c3ccccc13)OC(C)(C)C2	22 µM (inactive)	19.8 µM (inactive)	24.2 µM (inactive)	24.7 µM (inactive)	18.6 µM (inactive)	21 µM (inactive)	19.2 µM (inactive)	30.5 µM (inactive)	14 µM (inactive)	20.3 µM (inactive)	16.1 µM (inactive)	16.3 µM (inactive)	17.8 µM (inactive)	18.2 µM (inactive)	17.2 µM (inactive)	15.7 µM (inactive)	–	16.5 µM (inactive)
C/C(Cc1ccc2c(c1)OCO2)=N\N=c1\sc2ccccc2n1C	> 100 µM (inactive)	> 100 µM (inactive)	> 100 µM (inactive)	> 100 µM (inactive)	> 100 µM (inactive)	> 100 µM (inactive)	–	–	78 µM (inactive)	> 100 µM (inactive)	> 100 µM (inactive)	> 100 µM (inactive)	84.9 µM (inactive)	> 100 µM (inactive)	> 100 µM (inactive)	65.9 µM (inactive)	> 100 µM (inactive)	> 100 µM (inactive)
C/C(=N/NC(=S)Nc1ccccc1C)c1ccccn1	0.075 µM (active)	< 0.0177 µM (active)	–	3.14 µM (inactive)	0.0571 µM (active)	0.0322 µM (active)	0.0818 µM (active)	0.052 µM (active)	< 0.0189 µM (active)	< 0.0196 µM (active)	0.279 µM (active)	1.6 µM (inactive)	1.09 µM (active)	0.43 µM (active)	0.632 µM (active)	< 0.0188 µM (active)	< 0.0149 µM (active)	6.27 µM (inactive)
COc1ccc(Cc2nc3cc(C(F)(F)F)ccc3n2CCCN(C)C)cc1	36.1 µM (inactive)	20.2 µM (inactive)	18.2 µM (inactive)	15.3 µM (inactive)	17.1 µM (inactive)	14.6 µM (inactive)	20.3 µM (inactive)	16.7 µM (inactive)	15.7 µM (inactive)	18 µM (inactive)	27.2 µM (inactive)	13.7 µM (inactive)	26.5 µM (inactive)	0.246 µM (active)	16.1 µM (inactive)	–	19.8 µM (inactive)	3.93 µM (inactive)
O=C1CC2[C@@H](N3CCCC3)CCC(N1Cc1ccccc1)C2(O)O (some centres undefined)	> 100 µM (inactive)	> 100 µM (inactive)	> 100 µM (inactive)	> 100 µM (inactive)	> 100 µM (inactive)	> 100 µM (inactive)	> 100 µM (inactive)	> 100 µM (inactive)	> 100 µM (inactive)	> 100 µM (inactive)	> 10 µM (inactive)	> 100 µM (inactive)	> 100 µM (inactive)	> 100 µM (inactive)	> 100 µM (inactive)	–	> 100 µM (inactive)	> 100 µM (inactive)
c1ccc(C(=NCCC2CNc3ccccc32)c2ccccc2)cc1 (centres undefined)	–	> 100 µM (inactive)	> 100 µM (inactive)	> 100 µM (inactive)	> 100 µM (inactive)	> 100 µM (inactive)	> 100 µM (inactive)	> 100 µM (inactive)	> 100 µM (inactive)	> 100 µM (inactive)	> 100 µM (inactive)	> 100 µM (inactive)	> 100 µM (inactive)	> 100 µM (inactive)	> 100 µM (inactive)	> 100 µM (inactive)	–	> 100 µM (inactive)
Fc1cc(-c2cc(-c3ccccc3)no2)c(Cl)cc1Cl	–	20.9 µM (inactive)	34.5 µM (inactive)	18.5 µM (inactive)	10.3 µM (inactive)	54.8 µM (inactive)	16.7 µM (inactive)	> 32.5 µM (inactive)	14 µM (inactive)	11.3 µM (inactive)	22.9 µM (inactive)	19.2 µM (inactive)	7.69 µM (inactive)	> 38.5 µM (inactive)	11.4 µM (inactive)	6.93 µM (inactive)	13.2 µM (inactive)	–
CC1=C(C(=O)N[C@@H](CC(C)C)C(=O)O)N2C(=O)[C@@H](NC(=O)[C@@H](N)Cc3ccccc3)[C@H]2SC1	> 100 µM (inactive)	> 100 µM (inactive)	> 100 µM (inactive)	> 100 µM (inactive)	> 100 µM (inactive)	> 100 µM (inactive)	> 100 µM (inactive)	–	–	> 100 µM (inactive)	> 100 µM (inactive)	> 100 µM (inactive)	> 100 µM (inactive)	–	> 100 µM (inactive)	> 100 µM (inactive)	> 100 µM (inactive)	> 100 µM (inactive)
Cc1cn(C2CC(n3cc(Cn4cc(I)c(=O)[nH]c4=O)nn3)C(CO)O2)c(=O)[nH]c1=O (centres undefined)	> 100 µM (inactive)	> 100 µM (inactive)	> 100 µM (inactive)	> 100 µM (inactive)	> 100 µM (inactive)	> 100 µM (inactive)	–	> 100 µM (inactive)	> 100 µM (inactive)	> 100 µM (inactive)	> 100 µM (inactive)	–	> 100 µM (inactive)	> 10 µM (inactive)	> 100 µM (inactive)	> 100 µM (inactive)	–	> 100 µM (inactive)
O=C1/C(=C\c2cccc(Oc3ccccc3)c2)S(=O)(=O)C(c2ccccc2)N1c1cc(Cl)ccc1Cl (centres undefined)	–	3.83 µM (inactive)	24.7 µM (inactive)	18 µM (inactive)	16.5 µM (inactive)	22.6 µM (inactive)	28.1 µM (inactive)	39.4 µM (inactive)	19.4 µM (inactive)	22.2 µM (inactive)	23.1 µM (inactive)	20.1 µM (inactive)	16.9 µM (inactive)	16.8 µM (inactive)	8.13 µM (inactive)	5.94 µM (inactive)	5.25 µM (inactive)	21.7 µM (inactive)
c1ccc(COC2C3COC(O3)C(OCc3ccccc3)C2OCc2ccccc2)cc1 (centres undefined)	60.7 µM (inactive)	40.1 µM (inactive)	> 100 µM (inactive)	> 100 µM (inactive)	> 100 µM (inactive)	32.1 µM (inactive)	22 µM (inactive)	> 100 µM (inactive)	77.3 µM (inactive)	41 µM (inactive)	49.1 µM (inactive)	–	67.1 µM (inactive)	56.2 µM (inactive)	18.2 µM (inactive)	12.2 µM (inactive)	30.6 µM (inactive)	14.6 µM (inactive)
c1ccc(-c2c3c(nc4c2CC[C@H]4NC2=NCCN2)[C@@H](NC2=NCCN2)CC3)cc1	> 73.1 µM (inactive)	> 100 µM (inactive)	> 100 µM (inactive)	> 40.3 µM (inactive)	9.31 µM (inactive)	> 100 µM (inactive)	29.2 µM (inactive)	> 100 µM (inactive)	> 100 µM (inactive)	> 100 µM (inactive)	> 100 µM (inactive)	> 100 µM (inactive)	20.7 µM (inactive)	> 100 µM (inactive)	> 100 µM (inactive)	–	59 µM (inactive)	27 µM (inactive)
O=C(N/N=C\c1ccc([N+](=O)[O-])cc1)Nc1ccccc1	> 100 µM (inactive)	> 100 µM (inactive)	> 100 µM (inactive)	> 100 µM (inactive)	> 100 µM (inactive)	> 100 µM (inactive)	> 100 µM (inactive)	> 100 µM (inactive)	> 100 µM (inactive)	> 100 µM (inactive)	> 100 µM (inactive)	> 100 µM (inactive)	> 100 µM (inactive)	> 100 µM (inactive)	> 100 µM (inactive)	> 100 µM (inactive)	> 10 µM (inactive)	–
Cn1c(=O)c(-c2ccccc2)c(O)c2ccccc21	> 100 µM (inactive)	> 100 µM (inactive)	> 100 µM (inactive)	> 100 µM (inactive)	> 100 µM (inactive)	> 100 µM (inactive)	> 100 µM (inactive)	–	> 100 µM (inactive)	> 100 µM (inactive)	> 100 µM (inactive)	> 100 µM (inactive)	> 100 µM (inactive)	> 100 µM (inactive)	> 100 µM (inactive)	> 100 µM (inactive)	> 100 µM (inactive)	> 100 µM (inactive)

— ChEMBL document CHEMBL1201862, “PubChem BioAssay data set” (2004)
